Measured values reported in patent US12440496B2, “Natriuretic peptide receptor a agonists useful for the treatment of cardiometabolic diseases, kidney disease and diabetes” (Merck Sharp & Dohme LLC, priority 2019, dated 2025).
Structures can show the parent of a compound that is named as a salt.

Target: T1, hNPRA (Homo sapiens, UniProt P16066)
T1 construct: expressed in transfected cells
T1 sequence (P16066 33-1061): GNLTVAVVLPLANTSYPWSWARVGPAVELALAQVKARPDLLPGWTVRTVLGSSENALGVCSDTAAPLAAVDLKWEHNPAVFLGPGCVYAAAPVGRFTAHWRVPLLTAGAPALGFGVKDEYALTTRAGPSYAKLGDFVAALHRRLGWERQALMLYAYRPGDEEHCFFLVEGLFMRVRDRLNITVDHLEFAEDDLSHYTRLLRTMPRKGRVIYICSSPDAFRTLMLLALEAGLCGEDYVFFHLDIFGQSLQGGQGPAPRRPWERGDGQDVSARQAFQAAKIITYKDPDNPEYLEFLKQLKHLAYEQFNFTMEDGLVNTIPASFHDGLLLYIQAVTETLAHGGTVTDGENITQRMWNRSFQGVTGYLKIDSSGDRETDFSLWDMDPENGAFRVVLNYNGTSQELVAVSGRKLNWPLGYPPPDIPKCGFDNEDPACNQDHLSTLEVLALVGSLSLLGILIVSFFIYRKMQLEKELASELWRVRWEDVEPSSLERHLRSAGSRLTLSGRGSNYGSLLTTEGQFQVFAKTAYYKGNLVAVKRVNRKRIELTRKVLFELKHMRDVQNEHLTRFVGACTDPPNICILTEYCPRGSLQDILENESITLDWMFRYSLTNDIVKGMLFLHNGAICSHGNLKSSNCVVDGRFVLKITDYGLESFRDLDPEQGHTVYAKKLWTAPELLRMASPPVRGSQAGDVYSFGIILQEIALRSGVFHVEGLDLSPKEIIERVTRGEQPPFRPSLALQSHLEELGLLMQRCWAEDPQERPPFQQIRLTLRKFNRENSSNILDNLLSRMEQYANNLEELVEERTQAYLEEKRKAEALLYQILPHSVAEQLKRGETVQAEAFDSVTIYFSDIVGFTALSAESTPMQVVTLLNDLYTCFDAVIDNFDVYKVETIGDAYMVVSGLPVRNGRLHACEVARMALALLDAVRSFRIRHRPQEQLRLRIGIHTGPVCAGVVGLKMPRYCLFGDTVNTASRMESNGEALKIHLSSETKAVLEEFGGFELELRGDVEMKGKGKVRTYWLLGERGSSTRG
Assay: NPRA Functional Cell Assay (cGMP HTRF, NPRA HEK JumpIn stable cells)
Type: cell-based
Settings: cGMP production, 1 hour at 37° C., 10-point dose response
Source text: NPRA Functional Cell Assay
Assay Buffer components HEPES and Opti-MEM® I Reduced-Serum with Glutamine (no phenol red) were from Gibco/Invitrogen (Thermo Fisher Scientific, Waltham, MA USA). 3-Isobutyl-1-methylxanthine (IBMX) and 4-(3-Butoxy-4-methoxybenzyl) imidazolidin-2-one (RO20) were obtained from Sigma-Aldrich (St. Louis, MO, USA). DPBS (Dulbecco's phosphate-buffered saline) without Ca2+ and Mg2+ was purchased from GE Healthcare Bio-Sciences (Pittsburgh, PA, USA). 384 well white Optiplates were from Perkin Elmer (Atlantic Highlands, NJ, USA). Human ANP (Atrial Natriuretic Peptide) (1-28) was purchased from Sigma-Aldrich (Catalog #A1663) and rat ANP (1-28) from Bachem (Torrance, CA, USA) (Catalog #H2100). Human-BNP (Human-Brain Natriuretic Peptide) (1-32 AA) was purchased from American Peptide Company (Sunnyvale, CA, USA) (product No. 14-1-90). cGMP kits were purchased from Cisbio. The assay ready frozen (ARF) Human/rat/dog NPRA HEK JumpIn Stable frozen cells (low passage number 5-11) were prepared in-house.
Test compounds were titrated in DMSO in a 10-point dose response in a separate step followed by a 100-fold dilution into the reaction. Positive response for each assay was determined using 10 nM rat-ANP peptide (rat cells) or 50 nM h-ANP peptide (human and dog cells).
Cells were thawed, washed with DPBS and resuspended in assay buffer (Opti-MEM+Glutamine, phenol red free media, 10 mM HEPES, 100 uM IBMX and 100 uM RO20) that was warmed to 37° C. Cells were then transferred to microplates via a Microplate Combi dispenser at a density of 1500, 400 and 1200 cells/well for human, rat and dog cells respectively, followed by acoustic transfer (Echo) of compound.
(§1) Compounds and cells were incubated at 37° C. with 5% CO2 for 1 hour, after which the cells were lysed and cGMP was captured using a CisBio cGMP HTRF assay kit. The TRF signal was measured with an Envision plate reader (emission set to 615 and 665 nm) after 1 hour incubation at ambient temperature. The TRF signal was converted to [cGMP] through the use of a cGMP calibration curve on each microplate. EC50's were generated from the resulting dose response curves by use of a 4 parameter logistic algorithm.
Assay Buffer components HEPES and Opti-MEM® I Reduced-Serum with Glutamine (no phenol red) were from Gibco/Invitrogen. 3-Isobutyl-1-methylxanthine (IBMX) and 4-(3-Butoxy-4-methoxybenzyl) imidazolidin-2-one (RO20) were obtained from Sigma. DPBS (Dulbecco's phosphate-buffered saline) without Ca2+ and Mg2+ was purchased from GE Healthcare Bio-Sciences (Pittsburgh, PA, USA). 384 well white Optiplates were from Perkin Elmer (Atlantic Highlands, NJ, USA). Human ANP (1-28) was purchased from Sigma (A1663) and rat ANP (1-28) from Bachem (H2100). Human-BNP (1-32 AA) was purchased from American Peptide Company (Sunnyvale, CA, USA) (product No. 14-1-90). cGMP kits were purchased from Cisbio (Bedford, MA, USA). The assay ready frozen (ARF) Human/rat/dog NPRA HEK JumpIn Stable frozen cells (low passage number 5-11) were prepared in-house.
as §1, with “Envision®” for “Envision”, “reader (Perkin Elmer)” for “reader”
hNPRA EC50 (nM) were determined for the compounds of Example 1 through Example 273 and are reported in the Experimental section of this application.

SMILES | EC50 [nM]
CC(C)(C)[C@H]1CCc2nc3sc(C(=O)N[C@H](CCN4CCCCC4)c4ccc(-c5csc(C(=O)O)c5)cc4)cc3cc2C1 (racemic) [Example 6, ammonium;4-[4-[rac-(1R)-3-(1-piperidyl)-1-[rac-(6S)-6-tert-butyl-5,6,7,8-tetrahydrothieno[2,3-b]quinoline-2-carbonyl]amino]propyl] phenyl]thiophene-2-carboxylate] | 877
CC(C)(C)[C@H]1CCc2nc3sc(C(=O)N[C@H](CCN4CCC(O)CC4)c4cccc(N5CC6(CCNCC6)OC5=O)c4)nc3cc2C1 (racemic) [Example 116, rac-(7S)-7-tert-butyl-N-[rac-(1R)-3-(4-hydroxy-1-piperidyl)-1-[3-(2-oxo-1-oxa-3-aza-8-azoniaspiro [4.5]decan-3-yl)phenyl]propyl]-5,6,7,8-tetrahydrothiazolo[5,4-b] quinoline-2-carboxamide; 2,2,2-trifluoroacetate] | 622
CN1CC(CNC(=O)c2cccc([C@@H](CCN3CCC(O)CC3)NC(=O)c3nc4cc5c(nc4s3)CC[C@H](C(C)(C)C)C5)c2)CC1=O (mixture of isomers) [Example 159, rac-(7S)-7-tert-butyl-N-[rac-(1R)-3-(4-hydroxy-1-piperidyl)-1-[3-[(1-methyl-5-oxo-pyrrolidin-3-yl)methylcarbamoyl]phenyl]propyl]-5,6,7,8-tetrahydrothiazolo[5,4-b]quinoline-2-carboxamide] | 901
CN1CCCC(NC(=O)c2cccc([C@@H](CCN3CCC(O)CC3)NC(=O)c3nc4cc5c(nc4s3)CC[C@H](C(C)(C)C)C5)c2)C1 (mixture of isomers) [Example 140, rac-(7S)-7-tert-butyl-N-[rac-(1R)-3-(4-hydroxy-1-piperidyl)-1-[3-[(1-methyl-3-piperidyl)carbamoyl]phenyl]propyl]-5,6,7,8-tetrahydrothiazolo[5,4-b]quinoline-2-carboxamide] | 224
CN(C)CC[C@@H](NC(=O)c1nc2cc3c(nc2s1)CC[C@H](C(C)(C)C)C3)c1cccc(C(=O)N[C@H]2CCN(C)C2)c1 (racemic) [Example 87, rac-(7S)-7-tert-butyl-N-[rac-(1R)-3-(dimethyl-amino)-1-[3-[rac-(3S)-1-methylpyrrolidin-3-yl]carbamoyl]phenyl]propyl]-5,6,7,8-tetrahydrothiazolo[5,4-b] quinoline-2-carboxamide] | 207
CN1CC(NC(=O)c2cccc([C@@H](CCN3CC4C(C3)C4C(=O)O)NC(=O)c3nc4cc5c(nc4s3)CC[C@H](C(C)(C)C)C5)c2)C1 (mixture of isomers) [Example 108, 3-[rac-(3R)-3-[3-[(1-methylazetidin-1-ium-3-yl)carbamoyl]phenyl]-3-[[rac-(7S)-7-tert-butyl-5,6,7,8-tetrahydrothiazolo [5,4-b]quinoline-2-carbonyl]amino]propyl]-3-azabicyclo[3.1.0]hexane-6-carboxylic acid; 2,2,2-trifluoroacetate] | 621
CC(C)(C)[C@H]1CCc2nc3sc(C(=O)N[C@H](CCN4CCC(O)CC4)c4ccc(-c5ccc(OCCF)nc5)cc4)nc3cc2C1 (racemic) [Example 128, rac-(7S)-7-tert-butyl-N-[rac-(1R)-1-[4-[6-(2-fluoroethoxy)-3-pyridyl]phenyl]-3-(4-hydroxypiperidin-1-ium-1-yl)propyl]-5,6,7,8-tetrahydrothiazolo[5,4-b] quinoline-2-carboxamide; 2,2,2-trifluoroacetate] | 1180
CC(C)(C)[C@H]1CCc2nc3sc(C(=O)N[C@H](CCN4CCC(O)CC4)c4cccc(C(=O)N[C@@H]5CCNC5)c4)nc3cc2C1 (racemic) [Example 130, rac-(7S)-7-tert-butyl-N-[rac-(1R)-3-(4-hydroxy-1-piperidyl)-1-[3-[[rac-(3R)-pyrrolidin-3-yl]carbamoyl]phenyl]propyl]-5,6,7,8-tetrahydrothiazolo[5,4-b]quinoline-2-carboxamide] | 96.5

Continued, values first:

EC50 [nM] | SMILES
514 | CCN(CC)CC[C@@H](NC(=O)c1nc2cc3c(nc2s1)CC[C@H](C(C)(C)C)C3)c1ccc(-c2cnc(O)c(F)c2)cc1 (racemic) [Example 202, diethyl-[rac-(3R)-3-[4-(5-fluoro-6-hydroxy-3-pyridyl)phenyl]-3-[[rac-(7S)-7-tert-butyl-5,6,7,8-tetrahydrothiazolo[5,4-b]quinoline-2-carbonyl]amino]propyl]ammonium; formate]
1910 | CC(C)(C)[C@H]1CCc2nc3sc(C(=O)N[C@H](CCN4CCC(O)CC4)c4ccc(N5CCC(O)C5)nc4)nc3cc2C1 (mixture of isomers) [Example 190, rac-(7S)-7-tert-butyl-N-[rac-(1R)-3-(4-hydroxy-1-piperidyl)-1-[6-(3-hydroxypyrrolidin-1-yl)-3-pyridyl]propyl]-5,6,7,8-tetrahydrothiazolo[5,4-b]quinoline-2-carboxamide]
674 | CN(CCO)CC[C@@H](NC(=O)c1nc2cc3c(nc2s1)CC[C@H](C(C)(C)C)C3)c1ccc(NS(=O)(=O)N(C)C)nc1 (racemic) [Example 206, 2-hydroxyethyl-methyl-[rac-(3R)-3-[6-(dimethylsulfamoylamino)-3-pyridyl]-3-[[rac-(7S)-7-tert-butyl-5,6,7,8-tetrahydrothiazolo[5,4-b]quinoline-2-carbonyl]amino]propyl]ammonium; 2,2,2-trifluoroacetate]
611 | CC(C)(C)[C@H]1CCc2nc3sc(C(=O)N[C@H](CCN4CCC(O)CC4)c4ccc(-c5ccc(O)nn5)cc4)nc3cc2C1 (racemic) [Example 165, rac-(7S)-7-tert-butyl-N-[rac-(1R)-3-(4-hydroxypiperidin-1-ium-1-yl)-1-[4-(6-hydroxypyridazin-3-yl)phenyl]propyl]-5,6,7,8-tetrahydrothiazolo[5,4-b]quinoline-2-carboxamide; 2,2,2-trifluoroacetate]
